Assays:
[1] = Lipophilicity log D7.4, shake flask method, n-octanol/PBS; format: physicochemical; conditions: n-octanol/PBS 0.01 M, pH 7.4, room temperature
Description: The most efficient protocol for the manual radiosynthesis of [^18F]RM365 was transferred to an automated synthesis module (Elysia-Raytest radiosynthesizer). For the biological evaluation, [^18F]RM365 was obtained with a moderate radiochemical yield of about 5% and high radiochemical purities (>99%), molar activity of about 80 GBq/μmol in a total synthesis time of 60 min (n = 6) starting with activities ranging from 8 to 13 GBq. […] RP and chiral HPLC analysis of the final product coeluted with the corresponding reference compound RM365 confirmed the identity and enantiopurity of the radioligand (Figure 5B). A log D7.4 of 3.0 ± 0.1 was determined by the shake flask method.[80],[81]
Log D7.4 of [^18F]RM365 was experimentally determined in n-octanol/PBS, 0.01 M, pH 7.4, at room temperature by the shake flask method. The measurement was performed twice in triplicate.[87]

[2] = set-up: species or system mouse; conditions: female, in vivo
Excerpt: The biodistribution of [^18F]RM365 was investigated in vivo in mice (n = 4) and rats (n = 2) by dynamic PET imaging studies.
Among others, increasing activity in the duodenum over time and accumulation in the brown adipose tissue (BAT) were observed (Figure S10). In contrast, a slow washout from the salivary glands, muscle, bones, and kidneys could be observed. An initial comparably high TAC peak value with a SUVmean > 4 in the liver, left ventricle (blood), heart wall, and lung followed by a fast washout and a subsequent slower washout phase could be observed. Furthermore, we conclude a mainly hepatic excretion of the activity, as shown by the liver and jejunum TACs in both species and a bladder activity of 0.24 ± 0.19% of injected dose at 60 min in mice (Figures S8 and S10).
In vivo biodistribution studies of [^18F]RM365 were performed in female CD-1 mice (n = 4, 31 ± 3 g) and female Wistar rats (n = 4, 150 ± 11 g). For the uptake studies into the brain, male Wistar rats carrying the stereotactically injected AAV2/7-CaMKII0.4-intron-hCB2R(D80N) (right striatum) and AAV2/7-CaMKII0.4-intron-3flag-eGFP (control/contralateral, left striatum) were used (n = 6; bodyweights were 260 ± 11 g). Data were assessed by dynamic small animal PET (Nanoscan, Mediso, Budapest, Hungary) in 60 min recordings, followed by T1-weighted (GRE, TR/TE = 15.0/2.4 ms, 252/252, FA = 25°) MR imaging with whole-body coils for anatomical correlation and attenuation correction.
The PET scans were performed 3−4 months after the stereotactic injections. […] Nonparametric (semiquantitative) analysis of achieved time–activity curves (TACs) was performed with Microsoft Excel to determine the time to peak, the TAC peak value, and the area under the curve (AUC) [drawing 1] where c (radioactivity) is expressed as the standardized uptake value normalized to the bodyweight in g (SUV). […] Area under the curves (AUCs) and corresponding 95% confidence intervals (CIs, 95%) were calculated with GraphPad Prism (v.8.2) following the assumptions described by Gagnon et al.[39]

CC1(C)Cc2ccc(C#N)cc2[C@@H]1NC(=O)c1cc2cc([18F])ccc2[nH]1 [[^18F]RM365]
logD [1]: 3 ± 0.1
initial TAC peak value (SUVmean) ([2]; CD-1 (mice), Wistar (rats), mouse): > 4
SUV in spleen ([2]; CD-1, mouse): 0.7 ± 0.1
bladder activity ([2]; CD-1, mouse, 60 min): 0.24 ± 0.19 % of injected dose

— PMC10614203, “Synthesis, Structure–Activity Relationships, Radiofluorination, and Biological Evaluation of [^18F]RM365, a Novel Radioligand for Imaging the Human Cannabinoid Receptor Type 2 (CB2R) in the Brain with PET” (Journal of Medicinal Chemistry, 2023)
